According to ChEMBL document CHEMBL1275550, “In vitro activity of doripenem, a carbapenem for the treatment of challenging infections caused by gram-negative bacteria, against recent clinical isolates from the United States” (2008):
In brackets after ≈: the same amount, converted by molar mass.

Legend:
Format in all cases: functional
Serratia marcescens [1] = assay: Antimicrobial activity against Ceftazidime non-susceptible Serratia marcescens by broth microdilution method
Enterobacter cloacae [2] = assay: Antimicrobial activity against Enterobacter cloacae with nonderepressed AmpC beta-lactamsae by broth microdilution method
Pseudomonas aeruginosa [3] = assay: Antimicrobial activity against imipenem susceptible Pseudomonas aeruginosa by broth microdilution method
Klebsiella pneumoniae [4] = assay: Antimicrobial activity against Klebsiella pneumoniae by broth microdilution method
Streptococcus pneumoniae = assay: Antimicrobial activity against penicillin-resistant Streptococcus pneumoniae by broth microdilution method; conditions: Streptococcus pneumoniae
Proteus mirabilis [5] = assay: Antimicrobial activity against Non-ESBL Proteus mirabilis assessed as susceptible isolate by broth microdilution method
Acinetobacter [6] = assay: Antimicrobial activity against imipenem susceptible Acinetobacter by broth microdilution method
Enterobacteriaceae [7] = assay: Antimicrobial activity against Ceftazidime non-susceptible Enterobacteriaceae by broth microdilution method
Enterobacter cloacae [8] = assay: Antimicrobial activity against Enterobacter cloacae by broth microdilution method
Acinetobacter [9] = assay: Antimicrobial activity against imipenem susceptible Acinetobacter assessed as susceptible isolate by broth microdilution method
Proteus mirabilis [10] = assay: Antimicrobial activity against Proteus mirabilis assessed as susceptible isolate by broth microdilution method
Serratia marcescens [11] = assay: Antimicrobial activity against Serratia marcescens by broth microdilution method
Serratia marcescens [12] = assay: Antimicrobial activity against Ceftazidime susceptible Serratia marcescens by broth microdilution method
Pseudomonas aeruginosa [13] = assay: Antimicrobial activity against imipenem susceptible Pseudomonas aeruginosa assessed as susceptible isolate by broth microdilution method
Acinetobacter [14] = assay: Antimicrobial activity against Acinetobacter by broth microdilution method
Acinetobacter [15] = assay: Antimicrobial activity against Acinetobacter assessed as susceptible isolate by broth microdilution method
Enterobacteriaceae [16] = assay: Antimicrobial activity against ceftazidime-susceptible Enterobacteriaceae by broth microdilution method
Citrobacter [17] = assay: Antimicrobial activity against Citrobacter assessed as susceptible isolate by broth microdilution method
Citrobacter [18] = assay: Antimicrobial activity against Citrobacter with derepressed AmpC beta-lactamsae by broth microdilution method
Pseudomonas aeruginosa [19] = assay: Antimicrobial activity against Pseudomonas aeruginosa isolated from ICU patient by broth microdilution method
Serratia marcescens [20] = assay: Antimicrobial activity against Serratia marcescens assessed as susceptible isolate by broth microdilution method
Pseudomonas aeruginosa [21] = assay: Antimicrobial activity against imipenem non-susceptible Pseudomonas aeruginosa by broth microdilution method
Proteus mirabilis [22] = assay: Antimicrobial activity against ESBL producing Proteus mirabilis assessed as susceptible isolate by broth microdilution method
Klebsiella pneumoniae [23] = assay: Antimicrobial activity against Klebsiella pneumoniae assessed as susceptible isolate by broth microdilution method
Citrobacter [24] = assay: Antimicrobial activity against Citrobacter with derepressed AmpC beta-lactamsae assessed as susceptible isolate by broth microdilution method
Klebsiella pneumoniae [25] = assay: Antimicrobial activity against ESBL producing Klebsiella pneumoniae assessed as susceptible isolate by broth microdilution method
Acinetobacter [26] = assay: Antimicrobial activity against imipenem non-susceptible Acinetobacter by broth microdilution method
Escherichia coli [27] = assay: Antimicrobial activity against Non-ESBL Escherichia coli assessed as susceptible isolate by broth microdilution method
Pseudomonas aeruginosa [28] = assay: Antimicrobial activity against Ceftazidime susceptible Pseudomonas aeruginosa assessed as susceptible isolate by broth microdilution method
Staphylococcus = assay: Antimicrobial activity against methicillin-susceptible coagulase-negative Staphylococcus by broth microdilution method; conditions: Staphylococcus
Citrobacter [29] = assay: Antimicrobial activity against Citrobacter with nonderepressed AmpC beta-lactamsae assessed as susceptible isolate by broth microdilution method
Proteus mirabilis [30] = assay: Antimicrobial activity against Proteus mirabilis by broth microdilution method
Escherichia coli [31] = assay: Antimicrobial activity against ESBL producing Escherichia coli assessed as susceptible isolate by broth microdilution method
Pseudomonas aeruginosa [32] = assay: Antimicrobial activity against Pseudomonas aeruginosa isolated from non-ICU patient by broth microdilution method
Pseudomonas aeruginosa [33] = assay: Antimicrobial activity against Ceftazidime susceptible Pseudomonas aeruginosa by broth microdilution method
Citrobacter [34] = assay: Antimicrobial activity against Citrobacter by broth microdilution method
Enterobacter cloacae [35] = assay: Antimicrobial activity against Enterobacter cloacae with derepressed AmpC beta-lactamsae by broth microdilution method

C[C@@H](O)[C@H]1C(=O)N2C(C(=O)O)=C(S[C@@H]3CN[C@H](CNS(N)(=O)=O)C3)[C@H](C)[C@H]12 [DORIPENEM]
MIC50 (Serratia marcescens [1]): 0.12 µg/mL (≈ 0.285 µM) | MIC90 (Serratia marcescens [1]): 0.25 µg/mL (≈ 0.595 µM) | MIC50 (Enterobacter cloacae [2]): 0.03 µg/mL (≈ 0.0713 µM) | MIC90 (Enterobacter cloacae [2]): 0.06 µg/mL (≈ 0.143 µM) | MIC50 (Pseudomonas aeruginosa [3]): 0.25 µg/mL (≈ 0.595 µM) | MIC90 (Pseudomonas aeruginosa [3]): 1 µg/mL (≈ 2.38 µM) | MIC50 (Klebsiella pneumoniae [4]): 0.03 µg/mL (≈ 0.0713 µM) | MIC90 (Klebsiella pneumoniae [4]): 0.06 µg/mL (≈ 0.143 µM) | MIC50 (Streptococcus pneumoniae; read-out: MIC50): 0.5 µg/mL (≈ 1.19 µM) | MIC90 (Streptococcus pneumoniae; read-out: MIC90): 1 µg/mL (≈ 2.38 µM) | Activity (Proteus mirabilis [5]): 98.9% | MIC50 (Acinetobacter [6]): 0.25 µg/mL (≈ 0.595 µM) | MIC90 (Acinetobacter [6]): 2 µg/mL (≈ 4.76 µM) | MIC50 (Enterobacteriaceae [7]): 0.06 µg/mL (≈ 0.143 µM) | MIC90 (Enterobacteriaceae [7]): 0.25 µg/mL (≈ 0.595 µM) | MIC50 (Enterobacter cloacae [8]): 0.03 µg/mL (≈ 0.0713 µM) | MIC90 (Enterobacter cloacae [8]): 0.12 µg/mL (≈ 0.285 µM) | Activity (Acinetobacter [9]): 89.1% | Activity (Proteus mirabilis [10]): 98.9% | MIC50 (Serratia marcescens [11]): 0.12 µg/mL (≈ 0.285 µM) | MIC90 (Serratia marcescens [11]): 0.25 µg/mL (≈ 0.595 µM) | MIC50 (Serratia marcescens [12]): 0.12 µg/mL (≈ 0.285 µM) | MIC90 (Serratia marcescens [12]): 0.25 µg/mL (≈ 0.595 µM) | Activity (Pseudomonas aeruginosa [13]): 98.5% | MIC50 (Acinetobacter [14]): 0.5 µg/mL (≈ 1.19 µM) | MIC90 (Acinetobacter [14]): 32 µg/mL (≈ 76.1 µM) | Activity (Acinetobacter [15]): 73.4% | MIC50 (Enterobacteriaceae [16]): 0.03 µg/mL (≈ 0.0713 µM) | MIC90 (Enterobacteriaceae [16]): 0.12 µg/mL (≈ 0.285 µM) | Activity (Citrobacter [17]): 99.8% | MIC50 (Citrobacter [18]): 0.06 µg/mL (≈ 0.143 µM) | MIC90 (Citrobacter [18]): 0.06 µg/mL (≈ 0.143 µM) | MIC50 (Pseudomonas aeruginosa [19]): 0.5 µg/mL (≈ 1.19 µM) | MIC90 (Pseudomonas aeruginosa [19]): 8 µg/mL (≈ 19 µM) | Activity (Serratia marcescens [20]): 98.7% | MIC50 (Pseudomonas aeruginosa [21]): 2 µg/mL (≈ 4.76 µM) | MIC90 (Pseudomonas aeruginosa [21]): 16 µg/mL (≈ 38 µM) | Activity (Proteus mirabilis [22]): 100% | Activity (Klebsiella pneumoniae [23]): 99.6% | Activity (Citrobacter [24]): 100% | Activity (Klebsiella pneumoniae [25]): 95.5% | MIC50 (Acinetobacter [26]): 32 µg/mL (≈ 76.1 µM) | MIC90 (Acinetobacter [26]): > 32 µg/mL | Activity (Escherichia coli [27]): 99.8% | Activity (Pseudomonas aeruginosa [28]): 92.3% | MIC50 (Staphylococcus; read-out: MIC50): 0.03 µg/mL (≈ 0.0713 µM) | MIC90 (Staphylococcus; read-out: MIC90): 0.06 µg/mL (≈ 0.143 µM) | Activity (Citrobacter [29]): 99.8% | MIC50 (Proteus mirabilis [30]): 0.12 µg/mL (≈ 0.285 µM) | MIC90 (Proteus mirabilis [30]): 0.5 µg/mL (≈ 1.19 µM) | Activity (Escherichia coli [31]): 100% | MIC50 (Pseudomonas aeruginosa [32]): 0.25 µg/mL (≈ 0.595 µM) | MIC90 (Pseudomonas aeruginosa [32]): 4 µg/mL (≈ 9.51 µM) | MIC50 (Pseudomonas aeruginosa [33]): 0.25 µg/mL (≈ 0.595 µM) | MIC90 (Pseudomonas aeruginosa [33]): 2 µg/mL (≈ 4.76 µM) | MIC50 (Citrobacter [34]): 0.03 µg/mL (≈ 0.0713 µM) | MIC90 (Citrobacter [34]): 0.06 µg/mL (≈ 0.143 µM) | MIC50 (Enterobacter cloacae [35]): 0.12 µg/mL (≈ 0.285 µM) | MIC90 (Enterobacter cloacae [35]): 0.25 µg/mL (≈ 0.595 µM)
